One substance from patent publication US20100016208A1, “PHOTOACTIVATABLE ANTIMICROBIAL AGENTS” (priority 2005, published 2010) can be followed below.

Data set [1] can be described thus: Fluorescence emission spectra of prodrug vs. free photosensitizer (TBO). Format: physicochemical. The note with it: ethanol, 635 nm excitation.
The target in data set [2] is β-lactamase from Enterobacter cloacae (Enterobacter cloacae, UniProt P05364). The experiment in a line: Enzyme-mediated cleavage of the prodrug (fluorescence emission, photosensitizer release). Format: biochemical. The method, then:
Enzyme-mediated cleavage of the prodrug The prodrug obtained was further studied for release of photosensitizer in presence of β-lactamase from Enterobacter cloacae. For the fluorescence emission study of the prodrug, the solvent employed was water, and the excitation wavelength 635 nm in the presence of beta-lactamase enzyme (from Enterobacter cloacae). Time-dependent fluorescence emission was also measured for photosensitizer release from the prodrug in the presence of enzyme. […] Thus, the prodrug was synthesized and characterized.

β-lactamase from Enterobacter cloacae, sequence (P05364 21-381): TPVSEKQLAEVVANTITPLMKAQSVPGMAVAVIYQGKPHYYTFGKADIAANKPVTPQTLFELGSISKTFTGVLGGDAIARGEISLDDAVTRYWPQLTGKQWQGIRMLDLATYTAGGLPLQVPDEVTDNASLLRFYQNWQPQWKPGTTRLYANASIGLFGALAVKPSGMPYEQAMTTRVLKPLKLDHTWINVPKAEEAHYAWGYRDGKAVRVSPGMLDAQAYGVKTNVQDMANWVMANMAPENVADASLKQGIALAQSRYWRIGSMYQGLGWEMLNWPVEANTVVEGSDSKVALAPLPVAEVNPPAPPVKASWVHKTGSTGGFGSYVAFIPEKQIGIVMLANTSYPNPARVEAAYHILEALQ

“Cephalosporanic Acid-Toluidine BlueO Prodrug”: the “reduction in fluorescence emission maxima (quenching of the photosensitizer upon conjugation with the cephalosporin moiety)” value in data set [1] was around 8 fold. Besides, the “enzyme specificity of photosensitizer release” value in data set [2] (beta-lactamase enzyme (from Enterobacter cloacae)) is recorded as “lactamase-specific activity”. In addition, the “increase in excited stated properties (fluorescence emission) on incubation with enzyme” value in data set [2] (water, 635 nm excitation, within minutes of incubation of prodrug with enzyme) is recorded as around 5 fold.
